Reference: the supplement of paper PMC10307832

Key:
Test in all cases: relative viability (nuclei count vs DMSO), 5 days (fraction); higher = more cells survive
EPLC-272H = tested on: EPLC-272H
Method in brief: (§1)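 Relative viability equals treated-well nuclei counts divided by vehicle-well nuclei counts. Counts came from 4× images of lung cancer cell lines grown in 1536-well plates for 5 days after pin-tool dosing on the day after seeding. Dosing used one drug alone or a fixed anchor-drug dose plus five library-drug doses (not always all listed) in √10 steps, and values are medians of duplicate plates.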

NCI-H358 = tested on: NCI-H358
Method in brief: as §1

EKVX = tested on: EKVX
Method in brief: as §1

NCI-H460 = tested on: NCI-H460
Method in brief: as §1

RERF-LC-KJ = tested on: RERF-LC-KJ
Method in brief: as §1

EMC-BAC-2 = tested on: EMC-BAC-2
Method in brief: as §1

LK-2 = tested on: LK-2
Method in brief: as §1

LU99A = tested on: LU99A
Method in brief: as §1

NCI-H1650 = tested on: NCI-H1650
Method in brief: as §1

NCI-H522 = tested on: NCI-H522
Method in brief: as §1

SW 900 = tested on: SW 900
Method in brief: as §1

NCI-H1755 = tested on: NCI-H1755
Method in brief: as §1

HARA = tested on: HARA
Method in brief: as §1

ChaGo-K-1 = tested on: ChaGo-K-1
Method in brief: as §1

HCC-44 = tested on: HCC-44
Method in brief: as §1

NCI-H596 = tested on: NCI-H596
Method in brief: as §1

NCI-H647 = tested on: NCI-H647
Method in brief: as §1

NCI-H1792 = tested on: NCI-H1792
Method in brief: as §1

NCI-H2405 = tested on: NCI-H2405
Method in brief: as §1

COR-L 105 = tested on: COR-L 105
Method in brief: as §1

NCI-H1993 = tested on: NCI-H1993
Method in brief: as §1

NCI-H1734 = tested on: NCI-H1734
Method in brief: as §1

A-427 = tested on: A-427
Method in brief: as §1

In the case of `CCNC(=O)c1noc(-c2cc(C(C)C)c(O)cc2O)c1-c1ccc(CN2CCOCC2)cc1` [Luminespib] + COc1cccc2cc(-c3nc([C@H]4CC[C@H](C(=O)O)CC4)n4ncnc(N)c34)[nH]c12 [OSI-027] (partner 0.5 µM), the relative viability (EPLC-272H; first compound 0.002 µM) is reported as 0.261, the relative viability (EPLC-272H; first compound 0.006325 µM) is reported as 0.26 and the relative viability (EPLC-272H; first compound 0.06325 µM) is reported as 0.27. It also gave a relative viability (EPLC-272H; first compound 0.2 µM) of 0.122, a relative viability (NCI-H358; first compound 0.002 µM) of 0.9 and a relative viability (NCI-H358; first compound 0.006325 µM) of 0.747. For the same compound, the relative viability (NCI-H358; first compound 0.02 µM) was 0.362, the relative viability (NCI-H358; first compound 0.06325 µM) was 0.0472 and the relative viability (NCI-H358; first compound 0.2 µM) was 0.0538. It also gave a relative viability (EKVX; first compound 0.002 µM) of 0.631, a relative viability (EKVX; first compound 0.006325 µM) of 0.684 and a relative viability (EKVX; first compound 0.06325 µM) of 0.658. The relative viability (EKVX; first compound 0.2 µM) was 0.143, the relative viability (NCI-H460; first compound 0.002 µM) was 0.702 and the relative viability (NCI-H460; first compound 0.006325 µM) was 0.586. For the same compound, the relative viability (NCI-H460; first compound 0.02 µM) was 0.0482, the relative viability (NCI-H460; first compound 0.06325 µM) was 0.0153 and the relative viability (NCI-H460; first compound 0.2 µM) was 0.0165. It also gave a relative viability (RERF-LC-KJ; first compound 0.002 µM) of 0.584, a relative viability (RERF-LC-KJ; first compound 0.006325 µM) of 0.536 and a relative viability (RERF-LC-KJ; first compound 0.02 µM) of 0.346. The relative viability (RERF-LC-KJ; first compound 0.06325 µM) was 0.207, the relative viability (RERF-LC-KJ; first compound 0.2 µM) was 0.195 and the relative viability (EMC-BAC-2; first compound 0.002 µM) was 0.426. The relative viability (EMC-BAC-2; first compound 0.006325 µM) was 0.354, the relative viability (EMC-BAC-2; first compound 0.02 µM) was 0.415 and the relative viability (EMC-BAC-2; first compound 0.06325 µM) was 0.348. The relative viability (EMC-BAC-2; first compound 0.2 µM) was 0.184, the relative viability (LK-2; first compound 0.002 µM) was 0.209 and the relative viability (LK-2; first compound 0.006325 µM) was 0.191. The relative viability (LK-2; first compound 0.02 µM) was 0.149, the relative viability (LK-2; first compound 0.06325 µM) was 0.12 and the relative viability (LK-2; first compound 0.2 µM) was 0.136. The relative viability (LU99A; first compound 0.002 µM) was 0.274, the relative viability (LU99A; first compound 0.006325 µM) was 0.265 and the relative viability (LU99A; first compound 0.02 µM) was 0.265. It also gave a relative viability (LU99A; first compound 0.06325 µM) of 0.154, a relative viability (LU99A; first compound 0.2 µM) of 0.162 and a relative viability (NCI-H1650; first compound 0.002 µM) of 0.717. For the same compound, the relative viability (NCI-H1650; first compound 0.006325 µM) was 0.44, the relative viability (NCI-H1650; first compound 0.02 µM) was 0.163 and the relative viability (NCI-H1650; first compound 0.06325 µM) was 0.0992. For the same compound, the relative viability (NCI-H1650; first compound 0.2 µM) was 0.148, the relative viability (NCI-H522; first compound 0.002 µM) was 0.687 and the relative viability (NCI-H522; first compound 0.006325 µM) was 0.732. It also gave a relative viability (NCI-H522; first compound 0.02 µM) of 0.615, a relative viability (NCI-H522; first compound 0.06325 µM) of 0.538 and a relative viability (NCI-H522; first compound 0.2 µM) of 0.587. For the same compound, the relative viability (SW 900; first compound 0.002 µM) was 0.502, the relative viability (SW 900; first compound 0.006325 µM) was 0.471 and the relative viability (SW 900; first compound 0.02 µM) was 0.131. For the same compound, the relative viability (SW 900; first compound 0.06325 µM) was 0.0999, the relative viability (SW 900; first compound 0.2 µM) was 0.0789 and the relative viability (NCI-H1755; first compound 0.002 µM) was 0.768. It also gave a relative viability (NCI-H1755; first compound 0.006325 µM) of 0.707, a relative viability (NCI-H1755; first compound 0.02 µM) of 0.626 and a relative viability (NCI-H1755; first compound 0.06325 µM) of 0.206. For the same compound, the relative viability (NCI-H1755; first compound 0.2 µM) was 0.113, the relative viability (HARA; first compound 0.002 µM) was 0.511 and the relative viability (HARA; first compound 0.006325 µM) was 0.281. For the same compound, the relative viability (HARA; first compound 0.02 µM) was 0.381, the relative viability (HARA; first compound 0.06325 µM) was 0.0542 and the relative viability (HARA; first compound 0.2 µM) was 0.0658. It also gave a relative viability (ChaGo-K-1; first compound 0.002 µM) of 0.562, a relative viability (ChaGo-K-1; first compound 0.006325 µM) of 0.612 and a relative viability (ChaGo-K-1; first compound 0.02 µM) of 0.525. The relative viability (ChaGo-K-1; first compound 0.06325 µM) was 0.199, the relative viability (ChaGo-K-1; first compound 0.2 µM) was 0.161 and the relative viability (HCC-44; first compound 0.002 µM) was 0.484. For the same compound, the relative viability (HCC-44; first compound 0.006325 µM) was 0.554, the relative viability (HCC-44; first compound 0.02 µM) was 0.483 and the relative viability (HCC-44; first compound 0.06325 µM) was 0.135. It also gave a relative viability (HCC-44; first compound 0.2 µM) of 0.139, a relative viability (NCI-H596; first compound 0.002 µM) of 0.797 and a relative viability (NCI-H596; first compound 0.006325 µM) of 0.788. It also gave a relative viability (NCI-H596; first compound 0.02 µM) of 0.415, a relative viability (NCI-H596; first compound 0.06325 µM) of 0.642 and a relative viability (NCI-H596; first compound 0.2 µM) of 0.377. The relative viability (NCI-H647; first compound 0.002 µM) was 0.717, the relative viability (NCI-H647; first compound 0.006325 µM) was 0.626 and the relative viability (NCI-H647; first compound 0.02 µM) was 0.595. The relative viability (NCI-H647; first compound 0.06325 µM) was 0.0814, the relative viability (NCI-H647; first compound 0.2 µM) was 0.0562 and the relative viability (NCI-H1792; first compound 0.002 µM) was 0.637. The relative viability (NCI-H1792; first compound 0.006325 µM) was 0.618, the relative viability (NCI-H1792; first compound 0.02 µM) was 0.509 and the relative viability (NCI-H1792; first compound 0.06325 µM) was 0.26. For the same compound, the relative viability (NCI-H1792; first compound 0.2 µM) was 0.229, the relative viability (NCI-H2405; first compound 0.002 µM) was 0.648 and the relative viability (NCI-H2405; first compound 0.006325 µM) was 0.545. For the same compound, the relative viability (NCI-H2405; first compound 0.02 µM) was 0.532, the relative viability (NCI-H2405; first compound 0.06325 µM) was 0.196 and the relative viability (NCI-H2405; first compound 0.2 µM) was 0.192. The relative viability (COR-L 105; first compound 0.002 µM) was 0.775, the relative viability (COR-L 105; first compound 0.006325 µM) was 0.619 and the relative viability (COR-L 105; first compound 0.02 µM) was 0.331. It also gave a relative viability (COR-L 105; first compound 0.06325 µM) of 0.162, a relative viability (COR-L 105; first compound 0.2 µM) of 0.176 and a relative viability (NCI-H1993; first compound 0.002 µM) of 0.598. The relative viability (NCI-H1993; first compound 0.006325 µM) was 0.545, the relative viability (NCI-H1993; first compound 0.02 µM) was 0.562 and the relative viability (NCI-H1993; first compound 0.06325 µM) was 0.457. The relative viability (NCI-H1993; first compound 0.2 µM) was 0.389, the relative viability (NCI-H1734; first compound 0.002 µM) was 0.538 and the relative viability (NCI-H1734; first compound 0.006325 µM) was 0.555. For the same compound, the relative viability (NCI-H1734; first compound 0.02 µM) was 0.352, the relative viability (NCI-H1734; first compound 0.06325 µM) was 0.168 and the relative viability (NCI-H1734; first compound 0.2 µM) was 0.156. The relative viability (A-427; first compound 0.002 µM) was 0.462, the relative viability (A-427; first compound 0.006325 µM) was 0.396 and the relative viability (A-427; first compound 0.02 µM) was 0.366. For the same compound, the relative viability (A-427; first compound 0.06325 µM) was 0.158 and the relative viability (A-427; first compound 0.2 µM) was 0.121.
